# Test results reported in patent publication EP3807270B1, “NOVEL HETEROARYL HETEROCYCLYL COMPOUNDS FOR THE TREATMENT OF AUTOIMMUNE DISEASE” (F. Hoffmann-La Roche AG, priority 2018, dated 2019).
# Biological target: T1, human TLR8 (Homo sapiens, UniProt Q9NR97)
# T1 construct: host or cells: HEK293 (HEK-Blue)
# T1 sequence (Q9NR97 27-1041): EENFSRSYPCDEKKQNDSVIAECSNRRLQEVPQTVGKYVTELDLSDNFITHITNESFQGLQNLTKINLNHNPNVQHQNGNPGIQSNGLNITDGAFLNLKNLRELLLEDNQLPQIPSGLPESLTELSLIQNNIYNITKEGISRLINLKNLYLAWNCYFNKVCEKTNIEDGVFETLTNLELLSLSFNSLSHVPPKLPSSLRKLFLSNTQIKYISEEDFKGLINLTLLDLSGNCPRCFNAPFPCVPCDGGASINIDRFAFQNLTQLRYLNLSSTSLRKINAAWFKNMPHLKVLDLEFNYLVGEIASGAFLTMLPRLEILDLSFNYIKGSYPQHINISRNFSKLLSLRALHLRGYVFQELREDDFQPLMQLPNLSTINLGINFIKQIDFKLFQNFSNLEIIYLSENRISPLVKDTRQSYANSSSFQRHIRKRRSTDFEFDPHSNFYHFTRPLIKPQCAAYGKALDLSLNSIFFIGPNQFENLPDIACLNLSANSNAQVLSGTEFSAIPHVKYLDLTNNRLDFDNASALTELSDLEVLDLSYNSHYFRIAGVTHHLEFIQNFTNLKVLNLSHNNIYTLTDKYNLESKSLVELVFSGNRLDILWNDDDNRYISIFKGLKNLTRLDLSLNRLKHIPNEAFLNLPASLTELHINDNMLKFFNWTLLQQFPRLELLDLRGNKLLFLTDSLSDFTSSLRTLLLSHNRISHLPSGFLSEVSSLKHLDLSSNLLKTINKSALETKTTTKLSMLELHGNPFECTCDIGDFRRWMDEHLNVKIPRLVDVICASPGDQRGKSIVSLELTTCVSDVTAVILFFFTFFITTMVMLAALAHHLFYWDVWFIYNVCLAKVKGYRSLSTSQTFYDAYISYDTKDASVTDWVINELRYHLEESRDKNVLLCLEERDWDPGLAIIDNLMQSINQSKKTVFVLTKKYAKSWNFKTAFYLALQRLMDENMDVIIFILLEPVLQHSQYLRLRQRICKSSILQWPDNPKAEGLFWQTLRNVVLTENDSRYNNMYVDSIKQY
# Test: HEK293-Blue-hTLR-8 cells assay (SEAP reporter, R848 stimulation)
# Format: cell-based
# Conditions: HEK293-Blue-hTLR8 cells, R848, 20 hrs; read-out: HEK/hTLR8 IC50
# From the text: A stable HEK293-Blue-hTLR-8 cell line was purchased from InvivoGen (Cat.#: hkb-htlr8, San Diego, California, USA). These cells were originally designed for studying the stimulation of human TLR8 by monitoring the activation of NF-κB. A SEAP (secreted embryonic alkaline phosphatase) reporter gene was placed under the control of the IFN-β minimal promoter fused to five NF-κB and AP-1-binding sites. The SEAP was induced by activating NF-κB and AP-1 via stimulating HEK-Blue hTLR8 cells with TLR8 ligands. Therefore, the reporter expression was declined by TLR8 antagonist under the stimulation of a ligand, such as R848, for incubation of 20 hrs. The cell culture supernatant SEAP reporter activity was determined using QUANTI-Blue™ kit (Cat.#: rep-qb1, Invivogen, San Diego, Ca, USA) at a wavelength of 640 nm, a detection medium that turns purple or blue in the presence of alkaline phosphatase.
# HEK293-Blue-hTLR8 cells were incubated at a density of 250,000-450,000 cells/mL in a volume of 170 µL in a 96-well plate in Dulbecco's Modified Eagle's medium (DMEM) containing 4.5 g/L glucose, 50 U/mL penicillin, […], […], 2 mM L-glutamine, 10% (v/v) heat-inactivated fetal bovine serum with addition of 20 µL test compound in a serial dilution in the presence of final DMSO at 1% and 10 µL of 60uM R848 in above DMEM, perform incubation under 37 °C in a CO2 incubator for 20 hrs. Then 20 µL of the supernatant from each well was incubated with 180 µL Quanti-blue substrate solution at 37°C for 2 hrs and the absorbance was read at 620-655 nm using a spectrophotometer. The signaling pathway that TLR8 activation leads to downstream NF-κB activation has been widely accepted, and therefore similar reporter assay was modified for evaluating TLR8 antagonist.
row,Structure (SMILES),IC50
1,"C[C@@H]1CN(c2ccc(C#N)c3ncccc23)C[C@H](CN2CCN(c3ccc4c(n3)CCNC4)C[C@H](O)C2)O1 (single isomer, unassigned) [Example 35A]",24 nM
2,"C[C@@H]1CN(c2ccc(C#N)c3ncccc23)C[C@H](CN2CCN(c3ccc4c(n3)CCNC4)C[C@@H](O)C2)O1 (single isomer, unassigned) [Example 35B]",23 nM
3,"C[C@@H]1CN(c2ccc(C#N)c3ncccc23)C[C@H](CN2C[C@H]3CN(c4ccc5c(n4)CCNC5)CC[C@@H]32)O1 (single isomer, unassigned) [Example 54]",22 nM
4,"C[C@@H]1CN(c2ccc(C#N)c3ncccc23)C[C@H](CN2CCN(c3ccc4c(n3)CN[C@H]4C)CC2)O1 (single isomer, unassigned) [Example 63]",3 nM
5,"C[C@@H]1CN(c2ccc(C#N)c3ncccc23)C[C@H](CN2CCN(c3ccc4c(n3)CN[C@@H]4C)CC2)O1 (single isomer, unassigned) [Example 64]",6 nM
6,"C[C@@H]1CN(c2ccc(C#N)c3ncccc23)C[C@H](CN2CCN(c3ccc4c(n3)[C@@H](C)NC4)CC2)O1 (single isomer, unassigned) [Example 65]",9 nM
7,"C[C@@H]1CN(c2ccc(C#N)c3ncccc23)C[C@H](CN2CCN(c3ccc4c(n3)[C@H](C)NC4)CC2)O1 (single isomer, unassigned) [Example 66]",9 nM
8,"C[C@@H]1CN(c2ccc(C#N)c3ncccc23)C[C@H](CN2CCN(c3cnc4c(c3)CN[C@H]4C)CC2)O1 (single isomer, unassigned) [Example 67]",20 nM
9,"C[C@@H]1Cc2cc(N3CCN(C[C@H]4CN(c5ccc(C#N)c6ncccc56)C[C@@H](C)O4)CC3)ncc2CN1 (single isomer, unassigned) [Example 70]",4 nM
10,"C[C@@H]1CN(c2ccc(C#N)c3ncccc23)C[C@H](CN2CCN(c3cc4c(cn3)CN[C@@H](C)C4)CC2)O1 (single isomer, unassigned) [Example 71]",4 nM
11,"C[C@@H]1CN(c2ccc(C#N)c3ncccc23)C[C@H](CN2CCN(c3cc4c(cn3)[C@H](C)NCC4)CC2)O1 (single isomer, unassigned) [Example 72]",5 nM
12,"C[C@@H]1CN(c2ccc(C#N)c3ncccc23)C[C@H](CN2CCN(c3cc4c(cn3)CCN[C@H]4C)CC2)O1 (single isomer, unassigned) [Example 75]",4 nM
13,"C[C@@H]1Cc2cnc(N3CCN(C[C@H]4CN(c5ccc(C#N)c6ncccc56)C[C@@H](C)O4)CC3)cc2CN1 (single isomer, unassigned) [Example 77]",7 nM
14,"C[C@@H]1Cc2cnc(N3CCN(C[C@H]4CN(c5ccc(C#N)c6nccnc56)C[C@@H](C)O4)CC3)cc2CN1 (single isomer, unassigned) [Example 82]",3 nM
15,"C[C@@H]1CN(c2ccc(C#N)c3nccnc23)C[C@H](CN2CCN(c3cc4c(cn3)[C@H](C)NCC4)CC2)O1 (single isomer, unassigned) [Example 85]",2 nM
16,"C[C@@H]1CN(c2ccc(C#N)c3ncccc23)C[C@H](CN2CCN(c3ccc4c(c3)CNC4)[C@@H](CO)C2)O1 [Example 4, 5-[(2S,6R)-2-[[(3R)-3-(hydroxymethyl)-4-isoindolin-5-yl-piperazin-1-yl]methyl]-6-methyl-morpholin-4-yl]quinoline-8-carbonitrile]",27 nM
17,"C[C@@H]1CN(c2ccc(C#N)c3ncccc23)C[C@H](CN2CCN(c3ncc4c(n3)CNCC4)CC2)O1 [Example 12, 5-[(2R,6S)-2-methyl-6-[[4-(5,6,7,8-tetrahydropyrido[3,4-d]pyrimidin-2-yl)piperazin-1-yl]methyl]morpholin-4-yl]quinoline-8-carbonitrile]",5 nM
18,"C[C@@H]1CN(c2ccc(C#N)c3ncccc23)C[C@H](CN2CCN(c3ccc4c(c3)CNC4)C(CO)C2)O1 (stereo partly drawn) [Example 13, 5-[(2S,6R)-2-[[3-(hydroxymethyl)-4-isoindolin-5-yl-piperazin-1-yl]methyl]-6-methyl-morpholin-4-yl]quinoline-8-carbonitrile]",22 nM
